Four compounds from PMC11261611, “Tongue-on-a-Chip: Parallel Recording of Sweet and Bitter Receptor Responses to Sequential Injections of Pure and Mixed Sweeteners” (Journal of Agricultural and Food Chemistry, 2024) can be followed below.

One may read the EC50 as the midpoint of the concentration-response curve.

Where a SMILES comes first, the peptide text is derived from it.

Test [1] has as its target T1, sweet taste receptor TAS1R2/R3 (TAS1R2) (Homo sapiens, UniProt Q7RTX0+Q8TE23).
T1 construct: with TAS1R3
T1 sequence (Q8TE23 20-839): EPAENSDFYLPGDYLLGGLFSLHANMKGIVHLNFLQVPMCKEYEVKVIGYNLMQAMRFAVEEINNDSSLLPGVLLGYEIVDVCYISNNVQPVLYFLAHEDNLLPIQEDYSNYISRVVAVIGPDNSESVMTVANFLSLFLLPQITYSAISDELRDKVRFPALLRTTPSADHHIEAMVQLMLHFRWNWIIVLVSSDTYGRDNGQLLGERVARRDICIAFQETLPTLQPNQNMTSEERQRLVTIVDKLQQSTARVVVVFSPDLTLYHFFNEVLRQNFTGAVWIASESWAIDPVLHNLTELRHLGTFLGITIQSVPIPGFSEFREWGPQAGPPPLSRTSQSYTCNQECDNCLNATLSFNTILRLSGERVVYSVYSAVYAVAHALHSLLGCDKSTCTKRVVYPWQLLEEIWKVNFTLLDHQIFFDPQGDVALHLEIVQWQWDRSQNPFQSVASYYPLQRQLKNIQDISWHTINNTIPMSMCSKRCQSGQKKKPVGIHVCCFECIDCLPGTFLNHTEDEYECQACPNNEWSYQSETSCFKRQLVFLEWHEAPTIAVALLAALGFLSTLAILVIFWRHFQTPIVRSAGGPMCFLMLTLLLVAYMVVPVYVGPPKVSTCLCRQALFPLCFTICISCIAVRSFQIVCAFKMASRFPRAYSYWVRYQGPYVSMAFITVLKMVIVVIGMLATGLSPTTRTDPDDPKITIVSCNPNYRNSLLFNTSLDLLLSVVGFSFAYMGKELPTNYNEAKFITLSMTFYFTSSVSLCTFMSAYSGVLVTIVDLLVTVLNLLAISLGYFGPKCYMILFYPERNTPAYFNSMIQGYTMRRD
T1 sequence (Q7RTX0 21-852): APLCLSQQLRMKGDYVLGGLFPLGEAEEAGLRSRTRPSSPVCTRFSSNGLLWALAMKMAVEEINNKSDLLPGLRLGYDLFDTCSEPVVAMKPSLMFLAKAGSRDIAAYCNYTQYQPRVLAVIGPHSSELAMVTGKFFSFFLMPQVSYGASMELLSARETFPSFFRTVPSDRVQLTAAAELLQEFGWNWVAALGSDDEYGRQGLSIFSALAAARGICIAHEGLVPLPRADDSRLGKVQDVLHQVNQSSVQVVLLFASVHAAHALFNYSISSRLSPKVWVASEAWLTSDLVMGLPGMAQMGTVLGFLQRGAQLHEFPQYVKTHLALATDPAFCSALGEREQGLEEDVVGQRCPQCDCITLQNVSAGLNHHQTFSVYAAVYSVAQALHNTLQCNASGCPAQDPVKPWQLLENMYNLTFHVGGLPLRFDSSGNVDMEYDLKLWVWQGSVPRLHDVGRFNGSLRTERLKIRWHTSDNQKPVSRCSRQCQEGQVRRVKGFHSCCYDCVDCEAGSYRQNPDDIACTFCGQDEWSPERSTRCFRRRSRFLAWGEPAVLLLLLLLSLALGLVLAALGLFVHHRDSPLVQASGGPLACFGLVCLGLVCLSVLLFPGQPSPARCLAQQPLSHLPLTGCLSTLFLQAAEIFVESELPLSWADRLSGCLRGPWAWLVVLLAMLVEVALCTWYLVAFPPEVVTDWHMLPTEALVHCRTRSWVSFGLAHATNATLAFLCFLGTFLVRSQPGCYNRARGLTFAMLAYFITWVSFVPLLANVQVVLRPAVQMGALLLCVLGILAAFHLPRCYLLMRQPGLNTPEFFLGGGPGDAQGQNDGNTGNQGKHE
Kind of test: calcium (Twitch2B FRET) response in reverse-transfected HEK293-Gα[…]GUST44 receptor array, normalized against umami receptor signal. Format: cell-based.

For test [2], the target named is T2, TAS2R43 (Homo sapiens, UniProt P59537).
T2 sequence (P59537 1-309): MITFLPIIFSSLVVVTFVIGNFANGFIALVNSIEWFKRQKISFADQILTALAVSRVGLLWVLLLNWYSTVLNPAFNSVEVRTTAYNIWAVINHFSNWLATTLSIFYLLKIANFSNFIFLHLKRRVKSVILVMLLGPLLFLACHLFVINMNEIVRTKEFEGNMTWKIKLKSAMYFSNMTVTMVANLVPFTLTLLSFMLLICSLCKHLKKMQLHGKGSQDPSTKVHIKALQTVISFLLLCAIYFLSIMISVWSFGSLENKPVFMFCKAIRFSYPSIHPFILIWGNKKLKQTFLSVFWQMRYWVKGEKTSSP
To be noted: hek293 cells.

For test [3], the target named is T3, TAS2R8 (Homo sapiens, UniProt Q9NYW2).
T3 sequence (Q9NYW2 1-309): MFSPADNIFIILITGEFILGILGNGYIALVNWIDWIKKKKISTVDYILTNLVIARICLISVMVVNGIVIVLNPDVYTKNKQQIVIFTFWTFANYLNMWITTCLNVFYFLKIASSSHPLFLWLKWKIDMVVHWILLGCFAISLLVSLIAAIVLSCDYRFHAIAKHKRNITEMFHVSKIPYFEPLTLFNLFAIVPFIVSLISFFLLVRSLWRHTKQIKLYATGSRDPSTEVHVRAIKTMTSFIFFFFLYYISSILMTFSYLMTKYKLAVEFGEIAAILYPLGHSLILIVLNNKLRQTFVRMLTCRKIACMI
To be noted: hek293 cells.

The target of test [4] is TAS2R31 (Homo sapiens, UniProt P59538). To be noted: hek293 cells.
Sequence of TAS2R31 (P59538 whole entry): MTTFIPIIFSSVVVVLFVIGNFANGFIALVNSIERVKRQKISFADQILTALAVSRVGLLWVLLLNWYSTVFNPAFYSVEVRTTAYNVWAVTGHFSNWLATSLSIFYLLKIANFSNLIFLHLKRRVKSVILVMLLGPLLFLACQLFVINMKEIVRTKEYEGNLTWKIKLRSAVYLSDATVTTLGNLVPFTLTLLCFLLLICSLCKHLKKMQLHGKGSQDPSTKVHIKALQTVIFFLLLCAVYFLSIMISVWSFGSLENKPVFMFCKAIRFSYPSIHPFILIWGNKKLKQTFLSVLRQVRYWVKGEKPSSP
The target of test [5] is T1, sweet taste receptor TAS1R2/R3 (TAS1R2). The test can be described thus: calcium (Twitch2B FRET) response in reverse-transfected HEK293-Gα[…]GUST44 receptor array, flow cell. It counts as cell-based.

Turning to `OC[C@H]1O[C@@](CO)(O[C@H]2O[C@H](CO)[C@@H](O)[C@H](O)[C@H]2O)[C@@H](O)[C@@H]1O` [sucrose], the EC50 in test [1] worked out at 35000 µM. Consider `O=S(=O)(O)NC1CCCCC1` [cyclamate], for which the “% signal reduction” value is on record as 92 % signal reduction in test [2], 33 % signal reduction in test [3] and 48 % signal reduction in test [4]. On to `COC(=O)[C@H](Cc1ccccc1)NC(=O)[C@@H](N)CC(=O)O` [aspartame] (H-Asp-Phe-OMe), for which, in test [5], the EC50 was 625 µM. Same read-out and setting: the value for `COC(=O)[C@H](Cc1ccccc1)NC(=O)[C@H](CC(=O)O)NCCCc1ccc(OC)c(O)c1` [advantame] was around 1.5 µM.
